Patent publication US3974184A, “Microbial production of certain isoflavones” (Zaidan Hojin Biseibutsu Kagaku Kenkyu Kai, priority 1973, dated 1976)
Where two headings read alike, the source gives them in different places.

Legend:
DOPA decarboxylase = molecular target: T1, DOPA decarboxylase (Homo sapiens, UniProt P20711); assay: Inhibition of DOPA decarboxylase (method of Davis and Awapara); format: biochemical; conditions: for inhibiting action against DOPA decarboxylase: in words; for IC50: read-out: concentration for 50% inhibition of DOPA decarboxylase (converted)
T1 sequence (P20711 1-480): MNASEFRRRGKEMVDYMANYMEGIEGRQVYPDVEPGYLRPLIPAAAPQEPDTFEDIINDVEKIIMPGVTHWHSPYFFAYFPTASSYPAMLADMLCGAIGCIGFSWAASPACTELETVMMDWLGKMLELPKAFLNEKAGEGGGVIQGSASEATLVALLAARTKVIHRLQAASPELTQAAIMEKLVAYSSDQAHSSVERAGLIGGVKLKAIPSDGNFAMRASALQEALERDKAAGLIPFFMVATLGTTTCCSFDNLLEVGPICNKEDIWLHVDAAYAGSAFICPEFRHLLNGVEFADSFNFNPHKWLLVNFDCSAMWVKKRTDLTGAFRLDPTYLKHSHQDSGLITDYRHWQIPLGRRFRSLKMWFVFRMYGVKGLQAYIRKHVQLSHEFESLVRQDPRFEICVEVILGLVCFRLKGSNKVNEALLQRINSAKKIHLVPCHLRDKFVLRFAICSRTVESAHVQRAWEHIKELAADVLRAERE
Description: It has been reported heretofore that an inhibitor against COMT delays the metabolism or rate of destruction of adrenaline, noradrenaline, etc. in the human body and, therefore, serves to prolong and promote their blood pressure elevating action. These inhibitors may also be used as curative or palliative medicines for diseases such as depression which is considered to be caused when catechol amines present in the human body are reduced in quantity. There has been much argument about etiological causes of schizophrenia. One hypothesis says that the schizophrenia is caused by the production of abnormally methylated bioamines (methylated catechol amines and serotonin) within the brain. Especially, hallucination of schizophrenia is said to be caused by abnormally methylated catechol amines (Ref. "Amines and Schizophrenia" by H. E. Himwich, S. S. Kety and J. R. Smythies, 1967, Pergamon Press, Oxford). The inhibitors of COMT may therefore be used as curative medicines for schizophrenia and for the associated hallucination. On the other hand, the anti-hemochlasis of isoflavones has been reported by Murata and Ikehata ("Agr. Biol. Chem." Vol. 32, No. 6, 1968, pp. 740-746) and the cholesterol deposition preventing action of isoflavones has been reported by G. W. Moersch, D. F. Morrow and W. A. Neuklis ("J. Med. Chem." 10(2), 1967, pp. 154-158). […] It will therefore be possible to use the compounds (I), (II) and (III) as curative medicines for diseases such as hypertension and arteriosclerosis and also as economizers in combination with DOPA for treating Parkinson's disease. […] This means that there is a possibility to use the compounds (I) and (II) as curative medicines for inflammation and allergy in man.

rats = assay: Toxicity in rats, administration into the abdominal cavity; format: in vivo; conditions: 200 mg./kg., abdominal cavity of rats, 25% aqueous dimethyl sulfoxide
Description: Now the compounds (I), (II) and (III) will be described with respect to their biological properties.

[1] = molecular target: T2, catechol-O-methyl transferase (COMT) (Rattus norvegicus, UniProt P22734); assay: Inhibition of catechol-O-methyl transferase (formation of tritium metanephrine); format: biochemical
T2 sequence (P22734 1-221 isoform P22734-2): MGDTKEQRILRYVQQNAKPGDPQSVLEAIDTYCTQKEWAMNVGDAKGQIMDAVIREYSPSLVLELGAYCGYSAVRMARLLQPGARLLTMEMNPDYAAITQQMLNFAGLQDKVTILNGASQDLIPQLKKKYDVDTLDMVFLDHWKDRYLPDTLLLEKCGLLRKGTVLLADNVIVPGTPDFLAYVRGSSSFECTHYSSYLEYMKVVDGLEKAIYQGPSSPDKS
Description: The compounds (I), (II) and (III) can be determined by measuring inhibition of COMT. The activity of COMT is measured in accordance with the method reported by B. Nikodejevic et al. (Ref. "The Journal of Pharmacology and Experimental Therapeutics", Vol. 174, pp. 83-93, by B. Nikodejevic et al., 1970). 0.5 cc total volume of reaction liquid is prepared from 0.125 cc of water, 0.05 cc of 0.1 mole phosphate buffer solution (pH 8.0), 0.1 cc of 0.1 mole magnesium chloride solution, 0.05 cc. of 0.05 mole adrenaline solution, 0.075 cc of 0.5 millimole tritium-8-adenosyl methionine aqueous solution (2.2 × 10^5 cpm), 0.05 cc of sample solution and 0.05 cc of enzyme solution. These solutions are mixed together at 0° C. and, after reacting for 20 minutes at 37° C., 1 cc of 0.5 mole boric acid buffer solution (pH 10.0) is added to stop the reaction. Then, tritium metanephrine (^3 H-metanephrine) wherein the meta-hydroxyl group has been methylated is extracted with a solvent mixture such as toluene-isoamyl alcohol (3:2). A quantity of solvent portion is then sampled and its radioactivity is measured by use of a liquid scintillation counter. The thusly obtained measurement of radioactivity tells the quantity of formed metanephrine, which in turn permits one to determine the inhibition.

[2] = isolated compounds, read-out: concentration inhibiting the activity of COMT by 50% (converted)
[3] = powders from silica gel fractions, Example 1, read-out: concentration showing 50% inhibition against COMT (converted)

SMILES | inhibiting action against DOPA decarboxylase (DOPA decarboxylase) | IC50 (DOPA decarboxylase) [µM] | toxicity (rats) | IC50 [1, 2] [µM] | IC50 [1, 3] [µM] | selectivity for COMT against the other enzymes ([1]; in words, other enzymes: tyrosine hydroxylase, dopamin-β-hydroxylase, DOPA decarboxylase, histidine decarboxylase) | inhibition of DOPA decarboxylase (DOPA decarboxylase; at a concentration as high as 100 .nu./cc)
COc1ccc(-c2coc3cc(O)c(OC)c(O)c3c2=O)cc1O [Compound (I), 3',5,7-trihydroxy-4',6-dimethoxy-isoflavone] | powerful inhibiting action | 37.8 | no toxicity |  |  |  | 
COc1ccc(-c2coc3c(OC)c(O)cc(O)c3c2=O)cc1O [Compound (II), 3',5,7-trihydroxy-4',8-dimethoxy-isoflavone] | powerful inhibiting action | 15.1 | no toxicity | 15.1 | 236 |  | 
COc1ccc(-c2coc3c(OC)c(O)c(OC)cc3c2=O)cc1O [Compound (III), 3',7-dihydroxy-4',6,8-trimethoxy-isoflavone] | no inhibiting action |  | no toxicity | 0.581 | 14.5 | inhibiting action only against COMT and not against the other enzymes | no inhibition
